Data reported in patent US8603993B2, “Compositions and methods modulating MG29 for the treatment of diabetes” (University of Medicine and Dentistry of New Jersey, priority 2009, dated 2013).
Entries after “also recorded” stand apart in the source; their conditions may differ. Like-named read-outs stand apart in the source and are kept apart here. No end group written: not given here.

Key:
[1] = patients treated with Januvia; cited from earlier work
WT muscle fibers = experiment: Osmotic shock-induced Ca2+ sparks in isolated FDB muscle fibers (confocal imaging); assay type: cell-based, mouse; conditions: GLP1 treatment
Method: (§1) The Ca spark response in skeletal muscle is compromised in mg29−/− and diabetic muscle. […] Considering that we see a similar functional phenotype with glucose handling between the mg29−/− animal and diabetic patients, we tested if the we would see similar defects in Ca signaling as well. Ca spark measurement is performed in 13-16 weeks old control wild type, type I diabetic mice (akita) or type II diabetic mice (db/db). Non-fasted serum glucose levels are recorded from blood samples taken from the tail vein immediately before sacrificing the mice. Following an established protocol in our laboratory, we measured Ca sparks in muscle fibers isolated from the flexor digitorum brevis (FDB). We observed no increase in the frequency of spontaneous resting Ca sparks in db/db muscle fibers (data not shown). […] The degree that the spark frequency decreased could be directly correlated with the blood glucose level of the animal, with more diabetic animals displaying less sparks than those animals with lower blood glucose levels (FIG. 9b).
(§2) FDB skeletal muscle fiber isolation. Mice were sacrificed by cervical dislocation and hind limbs were surgically removed and placed into Isotonic Tyrode with measured osmolarity of 290 mOsm. Flexor Digitorum Brevis (FDB) muscles were excised and transferred into Tyrode supplemented with 0.2% type I collagenase (Sigma C-0310), for 90 minutes at 37° C. Muscle fibers were gently dissociated by several passages through a small diameter pipette. Isolated FDB muscle fibers were plated onto a ΔTC glass-bottomed dishes (Bioptech Inc.) in 1 ml of Tyrode buffer.
(§3) Confocal Ca^2+ imaging and spark analysis. Following individual muscle fiber isolation, the fibers were plated onto a dish containing isotonic tyrode solution (290 mOsm). 10 μM Fluo4-AM, a membrane permeable cytosolic Ca^2+ indicator dye is loaded onto the dish and left incubated for 60 minutes in room temperature along with different drug treatment. Replacing 50% of the dish volume with isotonic Tyrode for three times washed excess dye from the dish. Using brightfield confocal microscopy, fibers were then be screened by light microscopy for intact sarcolemmal membranes and regular striation patterns. Muscle fibers that fulfill these criteria were bathed in the isotonic solution, a physiological resting condition. Measurement of SR Ca^2+ release was performed on a BioRad Radiance-2100 confocal microscope equipped with Argon laser ([…]), Helium-Neon laser (632 nm), and a 40×, 1.3 NA oil immersion objective. An acquisition rate of 2 ms perline was used for line scan imaging, while serial x-y images were acquired at 3.08 s per frame (512×512 pixels). Osmotic shock to disrupt the juxtaposition of membrane coupling was applied to analyze whether knockdown of Bin1 alters the Ca^2+ sparks activity. Initially, fiber was perfused with isotonic solution for 30 seconds prior to applying hypotonic Tyrode solution (170 mOsm) for 1 minute that induces membrane swelling. […] For each animal, 3-4 fibers were treated by osmotic shock, and from each fiber 2 images (comprised of 30000 2 ms linescans of 512 pixels) were recorded. Image analysis and normalization of linescan intensities to the calculated resting fluorescence (F0) and determination of the amplitude and duration of individual events was performed using custom routines for IDL software. […]
(§4) Solutions. […] 5 CaCl2, 2 MgCl2 and 10 HEPES (ph 7.2), with measured osmolality of 290 mOsm. […]

db/db muscle fibers = experiment: as above; assay type: cell-based, mouse
Method: as §1, §2, §3, §4

[2] = tested on: extensor digitorum longus (EDL) of non-fasted db/db mice; experiment: Ex vivo contractility assay, force recovery after fatigue; set-up: species or system mouse
Method: Application of GLP1 can improve contractility in skeletal muscle from diabetic mice. […] This leads us to test whether the increased Ca sparks activity can be translated as increased muscle force as measured by ex vivo contractility assays. The extensor digitorum longus (EDL) of non-fasted db/db mice is mounted to a force transducer and electrically stimulated following the protocol shown in FIG. 11. A 10 fold higher dose of GLP1 (100 nM) used in the Ca^2+ spark experiments is applied to the contractility study, to take into account the increased mass of the anatomical muscle over the isolated muscle fiber. Muscles were tested for their maximum force (Tmax) produced at various frequencies and then fatigued using rapid pulses of an electric field, which was then followed by another measurement of Tmax. Following 1 hour of GLP1 application, this stimulation protocol was repeated on the same muscles (FIG. 11a). Calculating the ratio of Tmax before and after GLP1 application will show how the application of GLP1 can influence the recovery of muscle function following fatigue.
Intact EDL and soleus muscle isolation. Intact EDL and soleus muscles were dissected from mice and maintained in Isotonic Tyrode solution supplemented with 12 mM glucose, continuously bubbled with 100% O2. […] Muscles were mounted vertically on a glass-stimulating apparatus (Radnoti) with platinum electrodes and attached to a movable isometric force transducer and to a stationary anchor, which allowed muscles to be stretched until both maximal forces for a given frequency and the frequency producing Tmax were obtained.
Force measurements during fatigue. A Powerlab computer-interface program (ADInstruments) was used to control the electrical stimulation protocols and to record, digitize and store force output data. […] Forces were normalized into gram after calibration and all data were analyzed by Origin software (OriginLab). […]
as §4

rat's soleus muscle = conditions: rat soleus incubated with GLP1; cited from earlier work
[3] = Insulin challenge, blood glucose after bolus IP injection; assay type: in vivo, mouse; conditions: IP injection of insulin
Method: FIG. 6. Mice null for MG29 (mg29−/−) display compromised response to insulin challenge. Fasting blood glucose levels were measured in mice following a bolus IP injection of insulin at time 0 on chart. […] Mean±SEM is shown. ANOVA is used for analysis with **: P<0.01;***P<0.001.

N[C@@H](CC(=O)N1CCn2c(nnc2C(F)(F)F)C1)Cc1cc(F)c(F)cc1F [Januvia, Sitagliptin]
blood glucose [1]: normalization

GLP1 7-36 Amide (HAEGTFTSDVSSYLEGQAAKEFIAWLVKGR-NH2; UniProt P01275 98-127, looked up) [Glucagon like peptide 1 (GLP1) of pro-glucagon origin is a type of incretin hormone; obtained from Sigma]
peripheral subsarcolemmal distribution of Ca2+ sparks (WT muscle fibers; WT fibers): does not alter
Ca2+ spark frequency (WT muscle fibers; WT muscle): minimal increases
Ca2+ spark events / frequency (db/db muscle fibers; db/db FDB fibers after osmotic shock, GLP1 10 nM for 1 hour): significantly improves; also recorded: can be reversed; also recorded: significant increased
peripheral subsarcolemmal distribution of Ca2+ sparks (db/db muscle fibers; db/db fibers, GLP1 treatment): does not alter
GLP1 effect on Ca2+ sparks by blood glucose group (db/db muscle fibers; db/db mice, high blood glucose >330 mg/dL vs lower blood glucose <260 mg/dL): maximum activity on db/db mice that exhibit high hyperglycemia condition
twitch ratio ([2]; after GLP1 treatment, 100 nM): no significant change
Tmax recovery ratio (maximal force after fatigue to before fatigue) ([2]; db/db EDL, 100 nM GLP1 for 1 h): back to the levels seen in the WT muscles; also recorded: improves muscle force
force frequency relationship ([2]; db/db muscle, 100 nM GLP1): did not significantly alter
PKB activity (rat's soleus muscle): increased
glycogen synthase activity (rat's soleus muscle): increased

insulin
blood glucose level ([3]; mg29-/- mice): much less effect
blood glucose ([3]; wild type control animals): significant decrease
